Values of other authors in patent US8394592B2, “Methods for assessing cancer susceptibility to carcinogens in tobacco products” (The Board of Regents of the University of Texas System, priority 2006, dated 2013).

Legend:
Swiss mice = details: micronucleus test in Swiss mice; cited from earlier work
Salmonella = details: Ames Salmonella assay; cited from earlier work
rats = details: cited from earlier work

Structure (SMILES): CN(CCCC(=O)c1cccnc1)N=O [NNK, 4-(methylnitrosamino)-1-(3-pyridyl)-1-butanone]
- mutagenicity (Swiss mice): potent mutagen
- mutagenicity (Salmonella): potent mutagen
- lowest dose shown to induce lung tumors (rats): 1.8 mg
